Data set [1] has as its system indomethacin induced ulcer. The data set can be described thus: antiulcer activity: suppression of indomethacin induced ulcer in mice. It is filed as in vivo, ddY series male mice. The note with it: po, read-out: Suppression rate of indomethacin induced ulcer, 100 mg/kg, p.o. On the procedure: The antiulcer activity of the compounds of this invention was determined by the following method. Four-week-old ddY series male mice were used as the test animals after they were fasted for 24 hours. Each test compound suspended in a 1% gum arabic solution was administerd to the stomach of each mouse at a dose of 100 mg/kg, and then, after 30 minutes, 20 mg/kg of indomethacin was administered orally. Four hours after the administration of indomethacin, the stomach of mouse was extirpated and the length of ulcers was measured. Then, the ulcer index was determined by the total sum of the scores as calculated in Table 1.

A short description of data set [2]: acute oral toxicity (LD50). The note with it: in vivo.
The mark [3] stands for this setting: mouse, 100 mg/kg p.o. 30 min before 20 mg/kg indomethacin, ulcer index 4 h later, vs control group.

The structures appear in SMILES notation. Like-named read-outs stand apart in the source and are kept apart here.

For 17 compounds, inhibition in vivo and LD50 results are on record in patent US4833144A, “2-Alkylsulfinyl-4(3H)-quinazolinone derivatives and pharmaceutical compositions” (Nisshin Flour Milling Co., Ltd., priority 1987, dated 1989).

In the case of `COc1ccc(-n2c([S+]([O-])Cc3nccc(OC)c3C)nc3ccc(C)cc3c2=O)cc1` (stereo not drawn) [2-[(4-methoxy-3-methylpyridin-2-yl)methylsulfinyl]-3-(4-methoxyphenyl)-6-methyl-4(3H)-quinazolinone], the inhibition in vivo at 100 mg/kg in data set [1] (setting [3]) is 51%.

Take `COc1cc(C[S+]([O-])c2nc3ccc(C)cc3c(=O)n2-c2ccccc2)ncc1C` (stereo not drawn) [2-[(4-methoxy-5-methylpyridine-2-yl)methylsulfinyl]-6-methyl-3-phenyl-4(3H)-quinazolinone]: the inhibition in vivo at 100 mg/kg in data set [1] (setting [3]) was determined as 59%.

As to `Cc1cccc2nc([S+]([O-])Cc3ccccn3)n(-c3ccccc3)c(=O)c12` (stereo not drawn) [5-methyl-3-phenyl-2-(2-pyridylmethylsulfinyl)-4(3H)-quinazolinone], in data set [1] (setting [3]), the inhibition in vivo at 100 mg/kg amounted to 77%.

For `COc1ccc(-n2c([S+]([O-])Cc3ccccn3)nc3ccccc3c2=O)cc1` (stereo not drawn) [3-(4-methoxyphenyl)-2-(2-pyridylmethylsulfinyl)-4(3H)-quinazolinone], in data set [1] (setting [3]), the inhibition in vivo at 100 mg/kg was determined as 72%.

For the compound `O=c1c2ccccc2nc([S+]([O-])Cc2ccccn2)n1-c1cccc2ccccc12` (stereo not drawn) [3-(1-naphthyl)-2-(2-pyridylmethylsulfinyl)-4(3H)-quinazolinone], the inhibition in vivo at 100 mg/kg in data set [1] (setting [3]) is 39%.

As for `Cc1ccnc(C[S+]([O-])c2nc3ccccc3c(=O)n2-c2ccccc2)c1` (stereo not drawn) [2-[(4-methylpyridin-2-yl)methylsulfinyl]-3-phenyl-4(3H)-quinazolinone], the inhibition in vivo at 100 mg/kg in data set [1] (setting [3]) is 68%.

Consider `COc1cccc(-n2c([S+]([O-])Cc3ccccn3)nc3ccccc3c2=O)c1` (stereo not drawn) [3-(3-methoxyphenyl)-2-(2-pyridylmethylsulfinyl)-4(3H)-quinazolinone], for which, in data set [1] (setting [3]), the inhibition in vivo at 100 mg/kg was 73%.

Regarding `COc1cc(C[S+]([O-])c2nc3ccccc3c(=O)n2-c2ccccc2)ncc1C` (stereo not drawn) [2-[(4-methoxy-5-methylpyridin-2-yl)methylsulfinyl]-3-phenyl-4(3H)-quinazolinone], in data set [1] (setting [3]), the inhibition in vivo at 100 mg/kg is 82%.

As for `O=c1c2ccccc2nc([S+]([O-])Cc2ccccn2)n1-c1ccccc1Cl` (stereo not drawn) [3-(2-chlorophenyl)-2-(2-pyridylmethylsulfinyl)-4(3H)-quinazolinone], the inhibition in vivo at 100 mg/kg in data set [1] (setting [3]) turned out to be 56%.

With `O=c1c2ccccc2nc([S+]([O-])Cc2ccncc2)n1-c1ccccc1` (stereo not drawn) [3-Phenyl-2-(4-pyridylmethylsulfinyl)-4(3H)-quinazolinone], in data set [1] (setting [3]), the inhibition in vivo at 100 mg/kg is 69%.

On to `Cc1ccc(-n2c([S+]([O-])Cc3ccccn3)nc3ccccc3c2=O)cc1` (stereo not drawn) [3-(4-methylphenyl)-2-(2-pyridylmethylsulfinyl)-4(3H)-quinazolinone], for which, in data set [1] (setting [3]), the inhibition in vivo at 100 mg/kg was found to be 73%.

With `Cc1ccc2nc([S+]([O-])Cc3ccccn3)n(-c3ccccc3)c(=O)c2c1` (stereo not drawn) [6-methyl-3-phenyl-2-(2-pyridylmethylsulfinyl)-4(3H)-quinazolinone], in data set [1] (setting [3]), the inhibition in vivo at 100 mg/kg was 56%.

Consider `CC(C)Cn1c([S+]([O-])Cc2ccccn2)nc2ccccc2c1=O` (stereo not drawn) [3-isobutyl-2-(2-pyridylmethylsulfinyl)-4(3H)-quinazolinone], for which the inhibition in vivo at 100 mg/kg in data set [1] (setting [3]) stood at 40%.

For `O=c1c2ccccc2nc([S+]([O-])Cc2cccnc2)n1-c1ccccc1` (stereo not drawn) [3-phenyl-2-(3-pyridylmethylsulfinyl)-4(3H)-quinazolinone], the inhibition in vivo at 100 mg/kg in data set [1] (setting [3]) was found to be 55%.

With `O=c1c2ccccc2nc([S+]([O-])Cc2ccccn2)n1-c1ccccc1` (stereo not drawn) [3-Phenyl-2-(2-pyridylmethylsulfinyl)-4(3H)-quinazolinone], the inhibition in vivo at 100 mg/kg in data set [1] (setting [3]) was determined as 83%. Also, in data set [2], the LD50 (usually the dose at which mortality reaches 50%) was over 3000 mg/kg.

On to `CN/C(=N/CCSCc1nc[nH]c1C)NC#N` [Cimetidine, reference compound], for which, in data set [1] (Mus musculus, 4 h), the inhibition in vivo at 100 mg/kg worked out at 40%.

For the compound `O=c1c2ccccc2nc([S+]([O-])Cc2ccnc3ccccc23)n1-c1ccccc1` (stereo not drawn) [3-phenyl-2-(4-quinolylmethylsulfinyl)-4(3H)-quinazolinone], the inhibition in vivo at 100 mg/kg in data set [1] (setting [3]) amounted to 64%.
